Data as given in publication PMC4004260 (Biochemistry, 2014).

Tests used:
[1] = test system: gpASNase3 (guinea pig L-asparaginase type III); assay: NADH-coupled spectrophotometric assay; type: biochemical, Cavia porcellus; settings: glycine-activated (cleaved) enzyme; Tris pH 7.5, 37 °C
[2] = molecular target: cleaved gpASNase3 protomer (α- and β-subunit), Asp-bound (Cavia porcellus (guinea pig)); assay: crystal structure

NC(=O)C[C@H](N)C(=O)O [L-Asn]
Km [1]: 2240 ± 140 µM

N[C@@H](CC(=O)N[C@@H](Cc1ccccc1)C(=O)O)C(=O)O [β-L-Asp-L-Phe]
Km [1]: 410 ± 30 µM

cleaved gpASNase3 protomer (α- and β-subunit), Asp-bound (complex)
stoichiometry N [2]: 2
